Data on 14 compounds can be found in ChEMBL document CHEMBL1201862, “PubChem BioAssay data set” (2004).

One test addresses Cytochrome P450 3A4 (Homo sapiens, UniProt P08684). To be noted: Potency.
The target of test [1] is T1, High affinity choline transporter 1 (Homo sapiens, UniProt Q9GZV3).
T1 sequence (Q9GZV3 whole entry): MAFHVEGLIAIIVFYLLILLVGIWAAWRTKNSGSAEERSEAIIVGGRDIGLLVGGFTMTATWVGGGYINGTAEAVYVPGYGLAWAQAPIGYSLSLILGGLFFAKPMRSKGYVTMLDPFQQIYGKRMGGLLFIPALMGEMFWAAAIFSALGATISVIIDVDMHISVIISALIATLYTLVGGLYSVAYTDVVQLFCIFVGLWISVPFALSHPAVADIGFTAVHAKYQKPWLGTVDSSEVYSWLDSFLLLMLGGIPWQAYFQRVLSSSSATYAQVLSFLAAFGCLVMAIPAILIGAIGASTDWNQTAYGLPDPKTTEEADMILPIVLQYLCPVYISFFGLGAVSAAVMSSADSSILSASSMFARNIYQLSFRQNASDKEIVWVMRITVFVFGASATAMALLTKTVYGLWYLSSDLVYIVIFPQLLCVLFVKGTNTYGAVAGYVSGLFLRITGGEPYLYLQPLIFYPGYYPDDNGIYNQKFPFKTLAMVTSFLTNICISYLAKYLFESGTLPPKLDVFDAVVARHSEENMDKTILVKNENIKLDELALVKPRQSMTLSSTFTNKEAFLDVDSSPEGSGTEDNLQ
As to the kind of experiment: human choline transporter blockers, potency – cell-based, 5-point CRC, membrane potential dye, dose response (AID 504840). In kind it is functional.

A further test concerns the target T2, Aminopeptidase N (Plasmodium falciparum FcB1/Columbia, UniProt O96935).
T2 sequence (O96935 whole entry): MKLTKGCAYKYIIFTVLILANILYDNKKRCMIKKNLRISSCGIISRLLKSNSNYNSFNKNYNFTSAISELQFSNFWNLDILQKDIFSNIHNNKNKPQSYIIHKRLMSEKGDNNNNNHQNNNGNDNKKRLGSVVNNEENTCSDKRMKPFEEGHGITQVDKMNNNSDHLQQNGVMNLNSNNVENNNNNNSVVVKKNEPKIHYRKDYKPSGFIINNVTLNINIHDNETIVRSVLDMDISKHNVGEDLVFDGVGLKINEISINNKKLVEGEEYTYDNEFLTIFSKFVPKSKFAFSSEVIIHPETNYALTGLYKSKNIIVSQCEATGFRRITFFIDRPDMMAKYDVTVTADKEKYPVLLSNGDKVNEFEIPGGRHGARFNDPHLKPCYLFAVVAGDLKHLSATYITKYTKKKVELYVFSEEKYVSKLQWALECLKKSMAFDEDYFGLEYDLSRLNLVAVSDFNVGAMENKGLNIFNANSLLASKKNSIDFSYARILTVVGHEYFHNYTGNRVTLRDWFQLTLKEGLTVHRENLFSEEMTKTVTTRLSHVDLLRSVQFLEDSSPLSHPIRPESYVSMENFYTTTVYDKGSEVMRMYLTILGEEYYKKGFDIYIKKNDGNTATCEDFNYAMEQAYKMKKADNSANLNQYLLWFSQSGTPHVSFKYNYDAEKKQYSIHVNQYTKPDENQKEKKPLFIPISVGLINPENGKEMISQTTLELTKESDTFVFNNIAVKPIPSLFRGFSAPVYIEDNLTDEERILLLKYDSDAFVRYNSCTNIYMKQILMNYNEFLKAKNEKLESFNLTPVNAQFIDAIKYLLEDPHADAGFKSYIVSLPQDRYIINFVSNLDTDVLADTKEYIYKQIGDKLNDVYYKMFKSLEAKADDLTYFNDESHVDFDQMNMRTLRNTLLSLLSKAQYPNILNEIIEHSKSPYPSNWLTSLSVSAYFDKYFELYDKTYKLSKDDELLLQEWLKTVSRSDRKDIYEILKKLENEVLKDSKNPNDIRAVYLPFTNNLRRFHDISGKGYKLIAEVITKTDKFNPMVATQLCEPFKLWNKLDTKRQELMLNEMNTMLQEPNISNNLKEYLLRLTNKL
As to the kind of experiment: malaria alanyl aminopeptidase activity blockers – biochemical, fluorogenic H-Leu-NHMec substrate, 1536-well (AID 1445). Also on record: species or system Plasmodium falciparum 3D7, 3D7.

In a further test the target is Genome polyprotein (dengue virus type 2, UniProt P29990). As to the kind of experiment: flavivirus cap methylation enzyme inhibition – biochemical, confirmation dose response, primary screen (AID 588689). Type of test: functional.
The target of the next test is T3, Leucine aminopeptidase (Plasmodium falciparum 3D7, UniProt Q8IL11).
T3 sequence (Q8IL11 whole entry): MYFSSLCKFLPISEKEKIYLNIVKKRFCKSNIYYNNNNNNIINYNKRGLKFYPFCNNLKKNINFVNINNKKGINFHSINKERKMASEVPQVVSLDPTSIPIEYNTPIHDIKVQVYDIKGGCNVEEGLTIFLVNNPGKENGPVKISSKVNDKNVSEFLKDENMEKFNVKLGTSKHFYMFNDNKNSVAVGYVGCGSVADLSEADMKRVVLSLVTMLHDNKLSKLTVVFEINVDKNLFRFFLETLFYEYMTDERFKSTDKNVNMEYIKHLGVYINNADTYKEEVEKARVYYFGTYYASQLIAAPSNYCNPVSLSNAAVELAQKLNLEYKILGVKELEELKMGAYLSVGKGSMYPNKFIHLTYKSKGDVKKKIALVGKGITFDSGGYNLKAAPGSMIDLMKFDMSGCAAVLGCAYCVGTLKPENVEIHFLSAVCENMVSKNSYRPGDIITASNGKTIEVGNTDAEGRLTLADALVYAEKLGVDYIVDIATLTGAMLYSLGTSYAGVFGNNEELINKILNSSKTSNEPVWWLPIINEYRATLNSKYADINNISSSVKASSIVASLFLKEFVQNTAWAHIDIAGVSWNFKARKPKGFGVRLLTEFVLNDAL
As to the kind of experiment: P. falciparum M17LAP inhibitors, primary screen, biochemical, fluorogenic H-Leu-NHMec substrate, 1536-well (AID 1619). In kind it is functional.

Test [2] addresses Induced myeloid leukemia cell differentiation protein Mcl-1 (Homo sapiens, UniProt Q07820). In kind it is functional.
Test [3] is described as follows: HEK-293T cell viability reduction – luminescence, B-cell screen hits, cytotoxicity control for BCR NF-kB inhibitor project, dose response (AID 489021).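 Note: HEK-293T cells carrying an NF-kB luciferase reporter; cells exposed to compound for about 14 hours before viability readout.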 Type of test: functional, cell-based.
Test [4] in a line: A cytotoxicity screen of small molecule inhibitors of the PhoP region in Salmonella typhi identified in the primary screen. [Related pubchem assays: 1850, 1864, 1985 ]. In kind it is functional.
In test [5] the target is T4, Replicative DNA helicase DnaB (Mycobacterium tuberculosis, UniProt P9WMR3).
T4 sequence (P9WMR3 whole entry): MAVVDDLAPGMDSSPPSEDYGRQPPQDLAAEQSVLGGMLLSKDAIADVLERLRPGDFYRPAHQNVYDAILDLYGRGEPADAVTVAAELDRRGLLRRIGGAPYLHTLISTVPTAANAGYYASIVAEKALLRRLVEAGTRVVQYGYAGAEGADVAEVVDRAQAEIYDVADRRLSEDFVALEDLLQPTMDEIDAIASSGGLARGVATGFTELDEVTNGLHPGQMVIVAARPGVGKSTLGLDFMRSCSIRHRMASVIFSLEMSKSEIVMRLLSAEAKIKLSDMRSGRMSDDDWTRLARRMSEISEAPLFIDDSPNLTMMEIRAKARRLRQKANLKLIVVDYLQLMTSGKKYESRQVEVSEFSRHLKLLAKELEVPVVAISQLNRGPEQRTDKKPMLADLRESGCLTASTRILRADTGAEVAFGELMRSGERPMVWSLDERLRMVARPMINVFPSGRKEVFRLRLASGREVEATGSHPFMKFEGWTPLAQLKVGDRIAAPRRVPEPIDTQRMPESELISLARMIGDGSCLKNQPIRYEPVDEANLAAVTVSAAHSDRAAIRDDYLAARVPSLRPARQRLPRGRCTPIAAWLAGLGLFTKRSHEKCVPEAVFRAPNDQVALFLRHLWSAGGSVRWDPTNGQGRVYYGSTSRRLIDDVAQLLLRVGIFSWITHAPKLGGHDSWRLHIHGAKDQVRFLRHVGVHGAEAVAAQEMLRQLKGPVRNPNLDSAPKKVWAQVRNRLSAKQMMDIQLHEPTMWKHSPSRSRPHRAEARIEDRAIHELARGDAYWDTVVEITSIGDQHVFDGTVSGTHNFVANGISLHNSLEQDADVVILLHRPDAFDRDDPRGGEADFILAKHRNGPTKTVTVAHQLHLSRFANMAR
As to the kind of experiment: DnaB intein splicing inhibitors, dose response, biochemical, cell-free fluorescence (AID 449749). Type of test: functional.

The target of the next test is T5, Protein RecA (Mycobacterium tuberculosis, UniProt P9WHJ3).
T5 sequence (P9WHJ3 whole entry): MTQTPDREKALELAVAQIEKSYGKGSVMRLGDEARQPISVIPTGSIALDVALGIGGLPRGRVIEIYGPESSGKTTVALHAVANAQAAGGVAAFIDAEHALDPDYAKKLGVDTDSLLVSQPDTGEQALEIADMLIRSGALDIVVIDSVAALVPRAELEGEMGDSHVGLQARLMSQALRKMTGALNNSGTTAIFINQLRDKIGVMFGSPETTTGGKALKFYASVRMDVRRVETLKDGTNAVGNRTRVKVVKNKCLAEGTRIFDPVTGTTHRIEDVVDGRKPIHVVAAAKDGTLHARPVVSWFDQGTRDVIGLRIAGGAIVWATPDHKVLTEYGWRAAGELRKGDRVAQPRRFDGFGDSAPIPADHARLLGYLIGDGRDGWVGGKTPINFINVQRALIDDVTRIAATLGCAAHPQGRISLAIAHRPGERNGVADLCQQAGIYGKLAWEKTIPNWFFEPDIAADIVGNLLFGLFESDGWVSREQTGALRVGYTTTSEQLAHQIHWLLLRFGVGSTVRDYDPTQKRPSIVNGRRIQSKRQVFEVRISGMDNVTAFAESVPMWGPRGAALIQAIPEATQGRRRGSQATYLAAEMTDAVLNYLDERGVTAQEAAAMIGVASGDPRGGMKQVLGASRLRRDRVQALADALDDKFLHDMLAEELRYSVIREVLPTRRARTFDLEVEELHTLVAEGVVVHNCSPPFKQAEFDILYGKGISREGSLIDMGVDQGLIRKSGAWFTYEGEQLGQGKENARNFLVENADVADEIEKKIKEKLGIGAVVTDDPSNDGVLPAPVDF
As to the kind of experiment: Fluorescence Cell-Free Homogeneous Dose Retest to Identify Inhibitors of RecA-Intein Splicing Activity. [Related pubchem assays (depositor defined):AID2097, AID2223, AID489010, AID492950]. In kind it is functional.

In test [6] the target is Peroxisome proliferator-activated receptor gamma/Nuclear receptor coactivator 3 (Homo sapiens, UniProt P37231). Type of test: functional.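 Note: agonist potency for raising coactivator recruitment to the receptor.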
Test [7] concerns the target Peroxisome proliferator-activated receptor gamma/Nuclear receptor coactivator 2 (Homo sapiens, UniProt P37231). In kind it is functional.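 Note: agonist potency for raising coactivator recruitment to the receptor.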
In test [8] the target is Peroxisome proliferator-activated receptor gamma/Nuclear receptor coactivator 1 (Homo sapiens, UniProt P37231). In kind it is functional.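 Note: agonist potency as compounds enhance coactivator SRC-1 recruitment to PPARgamma.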
A further test concerns H4. As to the kind of experiment: Luminescence Cell-Based Dose Response HTS to Identify Activators of 5'UTR Stem-Loop Driven Prion Protein mRNA Translation in H4 Neuroglioblastoma Cells. [Related pubchem assays: 1829 (Project Summary), 1814 (Primary HTS)]. In kind it is functional. As to conditions: Homo sapiens.
A further test concerns the target Cytochrome P450 2C19 (Homo sapiens, UniProt P33261). As to the kind of experiment: Cytochrome panel assay with activity outcomes. Panel member name: p450-cyp2c19 Compounds with AC50 equal or less than 10 uM are considered active. In kind it is functional. To be noted: read-out: AC50.

The source made the active and inactive calls. Some results are limits rather than exact numbers.

Sequence of Peroxisome proliferator-activated receptor gamma/Nuclear receptor coactivator 2 (P37231 whole entry): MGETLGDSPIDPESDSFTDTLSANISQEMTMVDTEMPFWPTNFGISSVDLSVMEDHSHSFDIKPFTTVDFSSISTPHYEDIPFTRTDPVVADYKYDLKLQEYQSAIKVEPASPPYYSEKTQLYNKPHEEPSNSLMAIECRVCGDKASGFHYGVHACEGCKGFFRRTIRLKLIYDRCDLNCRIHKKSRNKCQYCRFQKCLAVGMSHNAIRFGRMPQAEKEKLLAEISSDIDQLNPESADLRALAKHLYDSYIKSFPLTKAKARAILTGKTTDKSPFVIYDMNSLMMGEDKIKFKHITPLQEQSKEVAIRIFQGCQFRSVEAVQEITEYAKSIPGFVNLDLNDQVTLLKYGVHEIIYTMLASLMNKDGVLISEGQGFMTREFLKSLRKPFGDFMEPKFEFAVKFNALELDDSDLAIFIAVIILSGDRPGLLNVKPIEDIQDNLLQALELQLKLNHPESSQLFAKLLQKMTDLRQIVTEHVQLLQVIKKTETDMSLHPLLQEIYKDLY
Sequence of Peroxisome proliferator-activated receptor gamma/Nuclear receptor coactivator 2 (Q15596 whole entry, further chain): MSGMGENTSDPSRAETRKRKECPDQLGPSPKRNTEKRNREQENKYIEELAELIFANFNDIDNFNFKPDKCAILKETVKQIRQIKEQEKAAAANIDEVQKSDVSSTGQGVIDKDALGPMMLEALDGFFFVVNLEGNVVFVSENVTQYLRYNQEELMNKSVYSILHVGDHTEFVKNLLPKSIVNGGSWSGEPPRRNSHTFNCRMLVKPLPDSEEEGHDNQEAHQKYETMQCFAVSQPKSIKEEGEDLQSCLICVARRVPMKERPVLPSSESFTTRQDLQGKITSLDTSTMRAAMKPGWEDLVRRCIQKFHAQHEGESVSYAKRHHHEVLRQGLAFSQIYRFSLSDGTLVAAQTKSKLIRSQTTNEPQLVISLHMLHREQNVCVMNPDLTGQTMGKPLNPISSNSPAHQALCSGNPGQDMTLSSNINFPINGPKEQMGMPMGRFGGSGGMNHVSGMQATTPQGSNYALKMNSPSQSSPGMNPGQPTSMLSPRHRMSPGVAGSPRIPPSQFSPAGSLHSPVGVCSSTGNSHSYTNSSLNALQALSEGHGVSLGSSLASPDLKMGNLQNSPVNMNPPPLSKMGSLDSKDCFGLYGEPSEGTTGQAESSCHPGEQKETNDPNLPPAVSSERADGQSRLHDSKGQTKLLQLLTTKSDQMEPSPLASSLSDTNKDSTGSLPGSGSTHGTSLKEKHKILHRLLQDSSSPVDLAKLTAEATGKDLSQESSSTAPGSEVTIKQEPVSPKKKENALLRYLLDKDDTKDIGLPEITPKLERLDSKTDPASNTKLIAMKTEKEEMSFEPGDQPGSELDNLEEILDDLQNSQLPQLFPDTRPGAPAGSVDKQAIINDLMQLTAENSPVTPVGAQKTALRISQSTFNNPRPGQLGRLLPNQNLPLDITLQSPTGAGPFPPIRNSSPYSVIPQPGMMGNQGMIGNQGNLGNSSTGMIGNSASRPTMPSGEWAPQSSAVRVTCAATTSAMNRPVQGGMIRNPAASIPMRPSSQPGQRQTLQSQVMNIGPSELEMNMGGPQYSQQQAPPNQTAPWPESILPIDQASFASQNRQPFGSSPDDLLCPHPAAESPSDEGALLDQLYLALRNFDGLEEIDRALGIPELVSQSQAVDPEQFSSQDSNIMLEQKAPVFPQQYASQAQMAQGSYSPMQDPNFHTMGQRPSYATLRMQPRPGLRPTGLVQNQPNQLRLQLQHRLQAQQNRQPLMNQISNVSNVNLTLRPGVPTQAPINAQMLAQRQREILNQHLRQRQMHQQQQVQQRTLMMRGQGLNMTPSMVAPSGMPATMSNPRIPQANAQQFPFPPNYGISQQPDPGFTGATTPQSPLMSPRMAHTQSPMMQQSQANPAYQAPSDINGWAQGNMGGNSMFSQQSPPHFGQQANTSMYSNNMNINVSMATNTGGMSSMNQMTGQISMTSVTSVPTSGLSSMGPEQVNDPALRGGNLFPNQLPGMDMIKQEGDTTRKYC
Sequence of Peroxisome proliferator-activated receptor gamma/Nuclear receptor coactivator 3 (P37231 whole entry): as the sequence (P37231 whole entry) above
Sequence of Peroxisome proliferator-activated receptor gamma/Nuclear receptor coactivator 3 (Q9Y6Q9 whole entry, further chain): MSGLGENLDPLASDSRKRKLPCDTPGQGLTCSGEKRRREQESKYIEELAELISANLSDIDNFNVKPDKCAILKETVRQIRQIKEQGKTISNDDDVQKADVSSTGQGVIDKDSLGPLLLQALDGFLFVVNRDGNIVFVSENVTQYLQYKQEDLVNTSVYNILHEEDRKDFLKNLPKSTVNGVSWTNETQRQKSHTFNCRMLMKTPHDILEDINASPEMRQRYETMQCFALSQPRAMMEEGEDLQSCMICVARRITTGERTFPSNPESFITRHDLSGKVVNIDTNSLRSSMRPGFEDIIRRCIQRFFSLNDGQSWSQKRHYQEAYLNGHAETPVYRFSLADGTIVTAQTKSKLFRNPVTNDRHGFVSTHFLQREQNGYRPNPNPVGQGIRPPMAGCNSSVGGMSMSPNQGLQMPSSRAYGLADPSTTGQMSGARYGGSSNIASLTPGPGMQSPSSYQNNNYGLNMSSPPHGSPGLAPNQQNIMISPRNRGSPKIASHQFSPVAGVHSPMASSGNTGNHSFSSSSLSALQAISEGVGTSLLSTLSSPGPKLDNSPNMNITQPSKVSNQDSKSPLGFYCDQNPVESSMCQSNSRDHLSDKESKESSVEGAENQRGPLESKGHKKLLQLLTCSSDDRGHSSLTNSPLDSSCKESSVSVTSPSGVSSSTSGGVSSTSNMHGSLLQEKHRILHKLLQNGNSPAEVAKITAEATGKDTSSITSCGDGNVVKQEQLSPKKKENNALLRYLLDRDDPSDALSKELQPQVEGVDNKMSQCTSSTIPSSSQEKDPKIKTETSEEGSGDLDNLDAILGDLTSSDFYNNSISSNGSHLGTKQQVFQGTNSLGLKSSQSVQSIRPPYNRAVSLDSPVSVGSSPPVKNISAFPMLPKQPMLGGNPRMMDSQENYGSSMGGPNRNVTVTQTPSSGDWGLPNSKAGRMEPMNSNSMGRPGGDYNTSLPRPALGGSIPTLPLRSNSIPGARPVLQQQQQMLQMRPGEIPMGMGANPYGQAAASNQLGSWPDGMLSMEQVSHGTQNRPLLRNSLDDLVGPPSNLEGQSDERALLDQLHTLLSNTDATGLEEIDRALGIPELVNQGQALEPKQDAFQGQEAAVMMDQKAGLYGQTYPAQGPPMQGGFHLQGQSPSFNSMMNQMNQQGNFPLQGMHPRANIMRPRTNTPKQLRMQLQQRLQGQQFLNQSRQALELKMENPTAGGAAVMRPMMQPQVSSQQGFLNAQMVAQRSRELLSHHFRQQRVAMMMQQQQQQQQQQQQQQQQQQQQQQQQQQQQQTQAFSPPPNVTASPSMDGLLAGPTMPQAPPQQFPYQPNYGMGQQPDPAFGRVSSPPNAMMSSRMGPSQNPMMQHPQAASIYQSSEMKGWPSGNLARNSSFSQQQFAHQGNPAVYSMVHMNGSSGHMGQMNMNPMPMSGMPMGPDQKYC
Sequence of Cytochrome P450 3A4 (P08684 whole entry): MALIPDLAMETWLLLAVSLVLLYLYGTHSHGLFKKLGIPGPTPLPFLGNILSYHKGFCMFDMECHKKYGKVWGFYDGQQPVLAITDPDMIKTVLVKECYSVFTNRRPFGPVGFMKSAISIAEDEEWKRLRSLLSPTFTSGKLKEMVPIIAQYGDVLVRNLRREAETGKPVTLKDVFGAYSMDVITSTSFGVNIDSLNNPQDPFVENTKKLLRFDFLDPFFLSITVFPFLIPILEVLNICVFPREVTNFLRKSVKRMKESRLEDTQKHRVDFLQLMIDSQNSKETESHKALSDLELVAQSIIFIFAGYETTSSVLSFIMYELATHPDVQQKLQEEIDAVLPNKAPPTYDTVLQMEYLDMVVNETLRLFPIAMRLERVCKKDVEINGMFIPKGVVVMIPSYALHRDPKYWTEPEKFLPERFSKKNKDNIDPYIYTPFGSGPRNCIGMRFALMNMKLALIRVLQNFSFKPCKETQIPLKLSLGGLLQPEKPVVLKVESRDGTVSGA
Sequence of Induced myeloid leukemia cell differentiation protein Mcl-1 (Q07820 whole entry): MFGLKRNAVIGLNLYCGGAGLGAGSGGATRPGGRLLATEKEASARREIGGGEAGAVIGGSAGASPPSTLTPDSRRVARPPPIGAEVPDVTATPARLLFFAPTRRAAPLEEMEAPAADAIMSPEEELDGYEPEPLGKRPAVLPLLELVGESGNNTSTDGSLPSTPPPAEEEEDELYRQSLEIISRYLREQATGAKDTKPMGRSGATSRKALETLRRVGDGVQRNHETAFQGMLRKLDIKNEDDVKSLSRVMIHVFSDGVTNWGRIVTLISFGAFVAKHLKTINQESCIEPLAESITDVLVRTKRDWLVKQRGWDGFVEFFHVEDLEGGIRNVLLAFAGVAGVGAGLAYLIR

For `Oc1ccc(C2Oc3cc(O)cc(O)c3CC2O)cc1` (stereo not drawn), on Cytochrome P450 3A4, the AC50 (as a rule, the concentration at which the activity in the assay is half-maximal) is 12.6 µM (inconclusive).
For `Cc1ccc(NC(S)=NNc2ccc([N+](=O)[O-])cc2S(=O)(=O)Nc2ccccc2C(=O)O)cc1C`, the concentration for half-maximal inhibition (IC50) (usually the midpoint of a concentration-inhibition curve) in test [1] was 12.3 µM (active); at Aminopeptidase N, 29.5 µM (active); on Genome polyprotein, > 100 µM (active); on Leucine aminopeptidase, 5.16 µM (active); in [2], 2.99 µM (active).
Turning to `Cc1ccc(C(=O)CSc2nnc(COc3cccc(C)c3)o2)cc1`, the IC50 in [3] is > 80 µM (inactive).
On to `Cn1c(N)c(C(=O)COC(=O)c2cc(-c3ccccc3)nc3ccccc23)c(=O)n(Cc2ccccc2)c1=O`, for which the AC50 on Cytochrome P450 3A4 was 12.6 µM (inconclusive).
As for `COc1ccc(S(=O)(=O)N[C@H](C(=O)N2CC[C@@]3(O)CCCC[C@H]3C2)c2ccccc2)cc1`, the 50% effective concentration (EC50) (commonly the concentration giving half of the maximal effect) in test [4] was > 50 µM (active).
Consider `CC(C)CC1C(C#N)=C(N)Oc2[nH]nc(-c3ccccc3)c21` (stereo not drawn), for which the AC50 in test [5] is 5.91 µM (active). Further, the EC50 on Protein RecA is 2.13 µM (active). On Leucine aminopeptidase, the IC50 is 33.7 µM (active).
In the case of `Cn1cnnc1SCC(=O)Nc1ccc2nc(SCc3ccccc3)sc2c1`, the EC50 in test [4] is > 50 µM (active).
As to `COc1c(OC)c(O)c2c(=O)cc(-c3c(O)cccc3O)oc2c1OC`, the EC50 in [6], in [7] and in test [8] was > 79.4 µM (not active) each time.
On to `Cc1cc(OCC(=O)Nc2ccc3oc(-c4ccncc4)nc3c2)ccc1Cl`, for which the EC50 in test [6] was 50.6 µM (not active); in test [7] it was 25.3 µM (not active); in [8] it was 24.8 µM (not active).
As to `Cc1ccc(N/N=C2/C(=N)N(c3ccccc3)NC2=O)cc1`, the EC50 in the test with H4 was 10.6 µM (active); in [6], > 79.4 µM (not active); in test [7] it was > 79.4 µM (not active); in test [8], > 79.4 µM (not active). Besides, the AC50 on Cytochrome P450 2C19 was 5.01 µM (inconclusive).
`COC(=O)CC1[C@@]2(C)C[C@@]34OC5(C)OC6(CC[C@@]7(C)C(c8ccoc8)OC(=O)C(C(C)=O)C7[C@]6(O5)C(O)[C@@]3(O)C2O)[C@]14C` (stereo partly drawn): on Cytochrome P450 3A4, the AC50 is 39.8 µM (inconclusive).
Still for that read-out and setting: to `CCCCCCN(C(=O)CCCCCN1C(=O)NC(c2ccc(-c3ccccc3)cc2)C(C(=O)OCc2ccccc2)=C1C)C(C(=O)NCCCC)c1ccccn1` (stereo not drawn) belongs 1 µM (inconclusive).
Take `O=C(N/N=C/c1ccc(Cl)cc1Cl)c1ccc(-n2cnnn2)cc1`: in test [3], the IC50 is > 80 µM (inactive).
With `CCN1CCN(C(=O)Nc2ccc(Cc3ccc(NC(=O)N4CCN(CC)CC4)cc3)cc2)CC1`, the EC50 in test [4] was > 50 µM (active).
